Experimental data taken from ChEMBL document CHEMBL5120767, “Phlegmacaritones A and B, a Pair of Serratane-Related Triterpenoid Epimers with an Unprecedented Carbon Skeleton from Phlegmariurus carinatus” (J Nat Prod, 2022).
Calls of active or inactive are those of the source. The rule behind the calls is not given here.

Assays:
Type in all cases: functional, cell-based
ONS [1] = experiment: Effect on human ONS cells assessed as decrease in EEA1-marked early endosomes at 5 uM after 24 hrs by fluorescence microscopic analysis
ONS [2] = experiment: Effect on human ONS cells assessed as increase in LC3b intensity at 5 uM after 24 hrs by fluorescence microscopic analysis
ONS [3] = experiment: Effect on human ONS cells assessed as increase in alpha-tubulin intensity at 5 uM after 24 hrs by fluorescence microscopic analysis
ONS [4] = experiment: Effect on human ONS cells assessed as increase in mitochondrial intensity at 5 uM after 24 hrs by fluorescence microscopic analysis
ONS [5] = experiment: Effect on human ONS cells assessed as increase in EEA1-marked early endosomes at 5 uM after 24 hrs by fluorescence microscopic analysis
ONS [6] = experiment: Induction of phenotypical changes in human ONS cells at 5 uM after 24 hrs
ONS [7] = experiment: Effect on human ONS cells assessed as decrease in alpha-tubulin intensity at 5 uM after 24 hrs by fluorescence microscopic analysis

| SMILES | Activity (ONS [1]) | Activity (ONS [2]) | Activity (ONS [3]) | Activity (ONS [4]) | Activity (ONS [5]) | Activity (ONS [6]) | Activity (ONS [7]) |
| --- | --- | --- | --- | --- | --- | --- | --- |
| CC1(C)[C@H](O)CC[C@]2(C)[C@H]3CC[C@H]4[C@@](C)(CC[C@@H]5[C@]4(C)CC[C@@H](O)[C@]5(C)C(=O)O)C[C@H]3C(=O)C[C@@H]12 | Active | Active | Active | Active | – | – | – |
| CC1(C)[C@@H](O)CC[C@]2(C)[C@H]3CC[C@H]4[C@@](C)(CC[C@@H]5[C@]4(C)CC[C@H](O)[C@]5(C)COC(=O)CCc4ccc(O)c(O)c4)CC3=CC[C@@H]12 | Active | Active | Active | Active | – | – | – |
| C=C1C=C2C[C@]3(C)CC[C@@H]4[C@](C)(CC[C@@H](O)[C@]4(C)CO)[C@H]3CC[C@@H]2[C@@]2(C)CC[C@@H](O)[C@](C)(CO)[C@H]12 | – | – | – | – | Active | – | – |
| C=C1C=C2C[C@]3(C)CC[C@H]4C(C)(C)[C@@H](O)CC[C@]4(C)[C@H]3CC[C@@H]2[C@@]2(C)CC[C@@H](O)[C@](C)(CO)[C@H]12 | Active | Active | Active | Active | – | Active | – |
| C=C1C=C2C[C@]3(C)CC[C@@H]4[C@](C)(CC[C@@H](O)[C@]4(C)CO)[C@H]3CC[C@@H]2[C@@]2(C)CC[C@@H](O)[C@@](C)(CO)[C@]12C | – | – | – | – | Active | – | – |
| C[C@@]12CC[C@@H]3[C@](C)(CC[C@@H](O)[C@]3(C)C(=O)O)[C@H]1CC[C@H]([C@@]1(C)CC[C@@H](O)[C@@]3(C)COC(=O)C[C@@H]31)C(=O)C2 | – | – | – | – | Active | – | – |
| CC1(C)[C@H](O)CC[C@]2(C)[C@H]3CC[C@H]4[C@@](C)(CC[C@@H]5[C@]4(C)CC[C@@H](O)[C@]5(C)C(=O)O)C[C@@H]3C(=O)C[C@@H]12 | Active | Active | – | Active | – | Active | Active |
| CC1(C)[C@@H](O)CC[C@]2(C)[C@H]3CC[C@H]4[C@@](C)(CC[C@@H]5[C@]4(C)CC[C@H](OC(=O)CCc4ccc(O)c(O)c4)[C@]5(C)CO)CC3CC[C@@H]12 (stereo not given in full) | – | – | – | – | Active | – | – |
| C=C1C=C2C[C@]3(C)CC[C@@H]4[C@](C)(CC[C@@H](O)[C@]4(C)C(=O)O)[C@H]3CC[C@@H]2[C@@]2(C)CC[C@@H](O)C(C)(C)[C@H]12 | Active | Active | Active | Active | – | – | – |
| C=C1C=C2C[C@]3(C)CC[C@@H]4[C@](C)(CC[C@@H](O)[C@]4(C)CO)[C@H]3CC[C@@H]2[C@@]2(C)CC[C@@H](O)C(C)(C)[C@H]12 | Active | Active | Active | Active | – | – | – |
| C[C@H]1CC(=O)[C@]23CCCN4CCC[C@]2(C4)C(=O)C[C@@H]3[C@H]1O | – | – | – | – | – | Active | – |
| CC1(C)[C@@H](OC(=O)CCc2ccc(O)c(O)c2)CC[C@@]2(C)[C@H]1CC[C@@]1(C)CC3CC[C@H]4C(C)(C)[C@@H](O)CC[C@]4(C)[C@H]3CC[C@@H]12 (stereo not given in full) | Active | Active | Active | Active | – | – | – |
| C=C1C=C2C[C@]3(C)CC[C@H]4C(C)(C)[C@H](O)CC[C@]4(C)[C@H]3CC[C@@H]2[C@@]2(C)CC[C@@H](O)C(C)(C)[C@H]12 | Active | Active | Active | Active | – | – | – |
| CC1(C)[C@@H](OC(=O)CCc2ccc(O)c(O)c2)CC[C@@]2(C)[C@H]1CC[C@@]1(C)CC3CC[C@@H]4[C@](C)(CC[C@@H](O)[C@]4(C)CO)[C@H]3CC[C@@H]12 (stereo not given in full) | Active | Active | Active | Active | – | – | – |
| CC1(C)[C@H](O)CC[C@]2(C)[C@H]3CC[C@H]4[C@@](C)(CC[C@@H]5[C@]4(C)CC[C@@H](O)[C@]5(C)CO)CC3=CC(=O)[C@@]12C | – | – | – | – | Active | – | – |
| C[C@@]12CC[C@@H]3[C@](C)(CC[C@@H](O)[C@]3(C)C(=O)O)[C@H]1CC[C@H]1[C@H](C2)C(=O)C[C@H]2[C@](C)(CO)[C@@H](O)CC[C@@]21C | – | – | – | – | Active | – | – |
